Read-outs that look alike come from different tables or passages of the source.
Experiments:
[1] = tested on: BimEL, ATR, caspase 3, caspase 8, caspase 9, PARP in HeLa cells; assay: Western blot analysis of apoptosis proteins; type: cell-based; details: 24 h treatment
Experimental: For electrophoresis, the proteins were separated by sodium dodecyl sulfate–polyacrylamide gel electro-phoresis (SDS–PAGE). The proteins were then transferred to a nitrocellulose membrane, which was blocked with 5% skimmed milk in phosphate buffered saline Tween-20 (PBST). A specific primary antibody was added to bind the target proteins for either 1 h at room temperature or overnight at 4 °C. A horseradish peroxidase (HRP) conjugated secondary antibody was added to the membrane after the primary antibody was washed off. All signals were detected after the HRP was activated by enhanced chemiluminescence. The band intensities of Western results were quantitated with the Image Quant program (Molecular Dynamics Inc.), analyzed and graphed. The untreated controls and the etoposideinduced activation of signaling molecules were taken as 0% and 100%, respectively. Statistic analysis was performed with the uni-polar, paired Student t-test. Data were considered significant when P value was less than 0.05.

A549 = assay: MTT cytotoxicity assay, A549; type: cell-based; details: mean ± SD (n = 3), read-out: Cytotoxic activity (IC50) A549
Experimental: (§1) HeLa, BGC823, A-549, MCF-7 and HT-7702 cell lines were obtained from the ATCC. […] Tumor cells (3500–13,000) were seeded into 96-well microtest plates in 100 μL of culture medium per well, incubated for 48 h in the presence or absence of test compounds (8 different concentrations ranging from 100 to 0.01 μg/mL). For quantitative estimation of cytotoxicity, the (MTT) method was used, essentially performed as described previously. Briefly, cells were washed twice with PBS, fixed for 15 min in 1% glutaraldehyde solution, rinsed twice in PBS, and stained in 0.5% MTT solution for 4 h at 37 °C. […] The initial seeding densities varied among the cell lines to ensure a final absorbance reading in control (untreated) cultures within the range of 0.6–0.8 A492 units. Drug exposure was carried out for 2 days, and the IC50 value, i.e., the drug concentration that decreased the absorbance by 50%, was extrapolated from dose-response data. Each test was performed in triplicate, and the absorbance readings between the triplicates varied by no more than 10%.

[2] = tested on: microtubules in HeLa cells; assay: Immunofluorescence of cellular microtubules; type: cell-based; details: for Cellular depolymerization of microtubules: 12 and 24 h, compared with negative control 0.1% DMSO; for Appearance of microtubules after treatment: immunofluorescence
Experimental: Cells (20000 per mL) were plated a onto 6-well tissue culture plates containing 12 mm round coverslips, cultured overnight, and then treated with different drugs at […] concentrations or drug vehicle (0.1% DMSO) for 12 h and 24 h. Attached cells were permeabilized. Cytoskeletons were incubated with α-tubulin, washed twice, and incubated with FITC goat anti-mouse immunoglobulins. The coverslips were washed, and 1 μg/mL DAPI to stain chromatin was added. The mixture was incubated for 30 min. After the samples were washed, they were examined and photographed using an Olympus epifluorescence microscope. The images were recorded with a Perkin Elmer camera.

[3] = MTT cytotoxicity assay, normal hepatic cell line HL-7702; type: cell-based; details: HL-7702 normal hepatic cells, human normal hepatic immortal cell line, drug exposure 48 h, mean ± SD (n = 3), read-out: Cytotoxic activity (IC50) HL-7702
Experimental: as §1

BGC-823 = assay: MTT cytotoxicity assay, BGC-823; type: cell-based; details: mean ± SD (n = 3), read-out: Cytotoxic activity (IC50) BGC-823
Experimental: as §1

HeLa cells [4] = assay: Annexin V-FITC/PI apoptosis assay; details: 0.1 μM, 6, 12, 24 and 48 h
Experimental: The HeLa cell line was used for cell apoptosis. Cells (20000 per mL) were incubated with several concentrations of the compounds or drugs for 6–48 h, and incubated in DMEM medium supplemented with 12% fetal calf serum (FCS), 2 mM L -glutamine, and 100 mg/L penicillin G and 100 mg/L streptomycin at 37 °C and 5% CO2. The cells were washed with PBS twice, centrifuged at 206 g for 5 min, and 5–10[5] cells were collected. Binding buffer suspension (500 μL) was added to the cells, and then 5 μL of the FITC-Annexin V mix was added. Next, 10 μL of the PI mix was added, and the suspension was mixed and kept at room temperature for 30 min in the dark. Analysis was with a BD accur C6 flow cytometer.

MCF-7 = assay: MTT cytotoxicity assay, MCF-7; type: cell-based; details: mean ± SD (n = 3), read-out: Cytotoxic activity (IC50) MCF-7
Experimental: as §1

tubulin = assay: Tubulin assembly centrifugation assay in vitro; type: biochemical; details: for Inhibition of microtubule polymerization compared with colchicine: colchicine as positive control
Experimental: Ligands were dissolved in DMSO at 20 mM and kept at −80 °C. Work solutions were done in DMSO and kept at −20 °C. The 50% inhibitory ligand concentration of tubulin assembly was determined with a centrifugation assay. Tubulin was equilibrated prior to use in 3.4 M glycerol, 1 mM EGTA, 0.1 mM GTP, pH 7.0, buffer through a 25 cm × 0.9 cm Sephadex G-25 column. Aggregates were removed by a centrifugation at 90000 g × 10 min in a TLA 120 rotor at 4 °C in an Optima TLX centrifuge. Tubulin concentration was determined as described by Andreu^42. Tubulin was kept at 4 °C, and 0.9 mM GTP and 6 mM MgCl2 were added to the sample. The solution was distributed in 200 μL polycarbonate tubes for the TL100 rotor. Growing concentrations of the ligands ranging from 0 to 25 μM were added to the samples (DMSO content of the samples, 2.5%), which were incubated for 30 min at 37 °C. Microtubules were separated from unassembled tubulin by a centrifugation at 90000 g × 10 min in a TLA100 rotor at 37 °C in an Optima TLX centrifuge. The supernatant containing unassembled tubulin was carefully collected and the microtubule pellet resuspended in 10 mM sodium phosphate buffer, pH 7.0, containing 1% SDS. Both supernatants and pellets were diluted 1:5 in the same buffer, and tubulin concentrations were measured fluorometrically (λexc = 280; λems = 323) using tubulin standards calibrated spectrophotometrically. The 50% inhibitory ligand concentration of tubulin assembly was determined with a centrifugation assay that measured the decrease in the concentrations of microtubules assembled in the presence of different concentrations of the compound.

HeLa cells [5] = assay: Cell cycle analysis by flow cytometry (PI); type: cell-based; details: for Effect on HeLa cell cycle: 0.1, 1.0, 5.0 μM, 6, 12, 24, 48 h; for Ratio of cell cycle arrest (of total cells): 0.1 μM, 6, 12, 24 and 48 h; for Total cell cycle arrest percentage (right peak of histogram): 48 h
Experimental: The HeLa cell line was used for cell cycle analysis. Progression through the cell cycle was assessed by flow cytometry DNA determination with Propidium Iodide (PI). […] Flow cytometric analysis was performed using a BD accur C6 flow cytometer. Analysis was with Mod FIT software.

topoisomerase II = assay: kDNA decatenation assay; type: biochemical; details: 100 μM
Experimental: The decatenation of kDNA was assayed according to TopoGen protocol in order to determine topoisomerase II activity. The substrate kDNA (200 ng) and 100 μM drugs were combined in assay buffer and incubated for 10 min on ice. Next, 1 U of topoisomerase II was added and the reaction was allowed to proceed for 15 min at 37 °C. The reaction was quenched via the addition of loading buffer (1% sarkosyl, 0.025% bromophenol blue, and 5% glycerol) and was then analyzed by electrophoresis on a 1% agarose gel in TBE buffer for 30 min at 130 V. The gel was stained with SYBR Green I (Molecular Probes) for 30 min and was visualized under UV illumination and photographed on a Tanon Imager.

HL-7702 = assay: MTT cytotoxicity assay, normal hepatic cell line HL-7702; type: cell-based; details: human normal hepatic immortal cell line, drug exposure 48 h, mean ± SD (n = 3), read-out: Cytotoxic activity (IC50) HL-7702
Experimental: as §1

HeLa = assay: MTT cytotoxicity assay, HeLa; type: cell-based; details: drug exposure 48 h, mean ± SD (n = 3), read-out: Cytotoxic activity (IC50) HeLa
Experimental: as §1

[6] = 5 μM, untreated control 0%, etoposide-induced activation 100%
[7] = Homo sapiens, BGC-823, drug exposure 48 h
[8] = Homo sapiens, MCF7, drug exposure 48 h

SMILES	Extent of compound-induced PARP [1, 6] [%]	Extent of compound-induced caspase 3 [1, 6] [%]	Extent of compound-induced caspase 9 [1, 6] [%]	BimEL level (pro-apoptotic protein) [1]	Cellular depolymerization of microtubules [2]	Appearance of microtubules after treatment [2]	IC50 at 48 h [3] [µM]	IC50 (BGC-823; [7]) [µM]	Ratio of apoptotic Hela cells (of total cells) (HeLa cells [4])	IC50 (MCF-7; [8]) [µM]	Inhibition of microtubule polymerization compared with colchicine (tubulin)	Effect on HeLa cell cycle (HeLa cells [5])	Ratio of cell cycle arrest (of total cells) (HeLa cells [5]; HeLa)	Total cell cycle arrest percentage (right peak of histogram) (HeLa cells [5]; HeLa, 5.0 μM) [%]	further results
COc1ccc(N[C@@H]2c3cc4c(cc3[C@@H](c3cc(OC)c(OC)c(OC)c3)[C@H]3C(=O)OC[C@@H]32)OCO4)cc1Cl [Compound 18, 4β-NH-(3-chloride-4-methoxyaniline)-4-deoxy-podophyllotoxin]	84	56	50	significantly increased	able to cause cellular depolymerization of microtubules	greatly disrupted and disappeared	79 ± 2.33	3.52 ± 0.23	less than 15%	3.54 ± 0.14	effects higher than colchicine	arrested at the G2/M phase	less than 10%	94.4	Extent of compound-induced BimEL [1, 6]: 58%; IC50 (A549; Homo sapiens, A549, drug exposure 48 h): 3.72 ± 0.29 µM
COc1ccc(N[C@@H]2c3cc4c(cc3[C@@H](c3cc(OC)c(O)c(OC)c3)[C@H]3C(=O)OC[C@@H]32)OCO4)cc1Br [Compound 17′, 4β-NH-(3-bromide-4-methoxyaniline)-4-deoxy-4′-demethylepipodophyllotoxin]	52	43	34	–	–	–	91.8 ± 1.57	5.63 ± 0.12	–	6.51 ± 0.37	–	arrested at the G2/M phase	–	–	Extent of compound-induced ATR [1, 6]: 26%; Inhibition of the catalytic activity of Topo II (kDNA decatenation) (topoisomerase II): completely inhibited
COc1ccc(NC2c3cc4c(cc3C(c3cc(OC)c(OC)c(OC)c3)C3C(=O)OCC23)OCO4)cc1F (stereo not drawn) [Compound 19, 4β-NH-(3-fluoro-4-methoxyaniline)-4-deoxy-podophyllotoxin]	–	–	–	significantly increased	able to cause cellular depolymerization of microtubules	greatly disrupted and disappeared	–	–	less than 15%	–	effects higher than colchicine	arrested at the G2/M phase	less than 10%	96.2	IC50 (A549; drug exposure 48 h): 1.76 ± 0.07 µM; IC50 (HL-7702): 55.4 ± 0.64 µM; IC50 (BGC-823; drug exposure 48 h): 1.61 ± 0.11 µM; IC50 (MCF-7; drug exposure 48 h): 2.01 ± 0.21 µM; GI50 (tubulin; centrifugation assay, ligand 0 to 25 μM, 30 min at 37 °C, read-out: GI50, inhibition of microtubule polymerization (tubulin assembly)): < 1 µM; IC50 (HeLa): 0.72 ± 0.08 µM; Percentage of cell cycle arrest (right peak of histogram) (HeLa cells [5]; HeLa, 5.0 μM, 12 h): 83.0%

— article PMC4660440 (Scientific Reports, 2015)
